Measured values: paper PMC12648443, “Modifications of NU-9, a potent protein aggregation inhibitor. Properties and activity in a cellular model of amyotrophic lateral sclerosis” (Bioorganic chemistry, 2025)

Assays:
[1] = target: T1, P-gp (Homo sapiens, UniProt P08183); assay: MDCK-MDR1 bidirectional permeability / efflux assay; assay type: in vitro ADME; settings: MDCK-MDR1; for Papp A→B at 120 min / Papp B→A at 120 min / efflux ratio at 120 min: dog
T1 construct: host or cells: MDCK-MDR1 (Madin Darby canine kidney cells carrying the MDR1 gene)
Procedure: The assay was carried out at Sai Life Sciences. Stock solutions of 6, 20, assay controls loperamide, atenolol, and propanolol (4 and 20 mM), and P-gp inhibitor zosuquidar (10 mM) were prepared in DMSO. Then the stock solutions from each test compound were diluted in HBSS buffer containing 10 mM HEPES to obtain the assay working solutions without the P-gp inhibitor at 2 and 10 μM (0.1 % DMSO v/v). Into working solutions containing zosuquidar (5 μM) were individually diluted 6, 20, and loperamide to obtain working solutions containing the test compounds at 2 or 10 μM and zosuquidar at 5 μM.
The MDCK-MDR1 (Madin Darby canine kidney - Multidrug Resistance gene-1) cells were cultured in DMEM media supplemented with 10 % FBS and antibiotics. For transport studies, cells were seeded into PET trans filter membranes (Millipore #PSRP010R5; 1.0 μm pore size) at a density of 1.2 × 10^5 cells/well and colchicine was added to the flasks and plates according to their volume. After 24 h, the media were replaced by fresh media and then changed every 2 days over 8 days. The media were removed from the wells of the basal and apical compartments of the plates, and a solution of HBSS with or without zosuquidar (5 μM) was added to the apical (400 μL) and basal (800 μL) sides of the plates. The plates were pre-incubated at 37 °C for 30 min in humidified air with 5 % CO2. The TTER (Transepithelial-Transendothelial Electrical Resistance) value for each well was recorded (assay TEER >83 Ω.cm^2). The buffer was removed from both compartments, and for the apical to basal direction transport determination, the apical compartment was loaded with 400 μL of the working solutions of the tested compounds or controls (2 or 10 μM) in the presence or absence of zosuquidar (5 μM), and the basal compartment was loaded with 800 μL of HBSS (0.1 % DMSO v/v). For the basal to apical direction transport determination, the compartments were loaded in their reverse order. The assay was performed in duplicate for the two transport directions [apical to basolateral (A → B) and basolateral to apical (B → A)]. After 120 min, 100 μL samples from both the apical and basal sides of the plate were transferred to new 96-deep well plates, quenched with acetonitrile containing an internal standard, vortexed for 5 min, and then centrifuged at 4000 rpm for 10 min. The same procedure was used to prepare a 96-deep well plate containing non-assayed working solutions (t = 0 concentrations). After centrifugation, 100 μL of the supernatant of each well was transferred to a new 96-well plate, and the samples were analyzed by LC-MS/MS.
For each experiment, the apparent permeability (Papp) for each direction and the efflux ratio (ER) were determined by the equations: Papp(cm/s)=(dQ/dt)/A×Co
where dQ/dt is the rate of permeation of the tested compounds across the (0 and 120 min) after correcting for dilution; A is the area of the filter (0.7 cm^2); Co is the initial concentration of the compounds on the donor compartment.
Where P(B→A) is the apparent permeability of the compounds from the basal to the apical direction and P(A→B) is the apparent permeability from the apical to basal direction. Lucifer Yellow was used as a control of the assay to evaluate monolayer integrity after incubation with the working solutions of the compounds, and the results were validated if the permeability of Lucifer Yellow from the apical to the basal side after 1-h incubation was kept <2 %. The results are presented as an average of two independent experiments.

[2] = test system: MG132-induced mutant SOD1 intracellular aggregation in PC12-SOD1^G85R YFP cells; assay: Protection against MG132-induced mut-SOD1 intracellular aggregation (fluorescence microscopy); assay type: cell-based; settings: PC12-SOD1^G85R YFP cells, 0.7 μM MG132, 72 h; Inactive = no decrease of aggregates at 10 μM vs vehicle
Procedure: The PC12 Tet-Off-SOD1^G85R YFP cells were cultured in DMEM media supplemented with 10 % horse serum, 5 % Tet-approved FBS, 1 % Penstrep, 1× L-glutamine, 200 μg/mL hygromycin, 100 μg/mL G418, with 1 μg/mL Doxycycline and were incubated at 37 °C in humidified air with […] until 90–95 % confluency. To induce the expression of SOD1^G85R YFP, the Doxycycline was removed at least 4 days before the experiment. To remove the Doxycycline, the media was removed, and the cells were washed 3 times with 1xPBS. The cells were then cultured in standard culture media without Doxycycline. To set up the assay, the cells were then seeded into 96-well cell culture plates (Greiner Bio-One Catalog #655090) at a concentration of 50,000 cells/well with a final volume of 100 μL/well and incubated in the CO2 incubator at 37 °C for 24 h. The media were removed from the cells and replaced with 100 μL of media containing 0.1 % DMSO or compounds, and incubated in the CO2 incubator at 37 °C for 6 h. The media were then replaced with fresh 100 μL of media containing the diluted compounds with 0.7 μM (−)-MG-132, and the plates were incubated for 72 h under culture conditions. After 72 h, the cells were stained with Hoescht 33,342 (55 μg/mL, 10 μL/well) and imaged (lex = 358, 513 nm) using a Molecular Devices ImageXpress Micro Confocal High-Content Imaging System equipped with a 40× objective. […] Image binning was set to 2. DAPI fluorescence was captured using an exposure time of 300 ms, and FITC fluorescence was captured using an exposure time of 400 ms. A 13-plane z-series was acquired for each field of view with a step size of 3 μm. For each condition, 2 sets of 9 images were generated in a 3 × 3 grid to separately image the SOD1^G85R YFP proteins and the nuclei stained with Hoescht 33,342. Image analysis was performed with MetaXpress software (Molecular Devices) using the Transfluor module. Parameters for puncta detection (aggregates) were set with a minimum pit width of 2 μm and a maximum pit width of 5 μm. Signal intensity thresholds were defined as 700 grayscale units above the local background. The analysis provided the average area of each cell that is covered by puncta (pit/cell), which are indicated by bright green spots on the SOD1^G85RYFP image set.
The assay was performed in triplicate for each condition tested, and wells containing the media with vehicle (0.1 % DMSO) or (−)-MG-132 alone were used as controls representing the minimum and maximum aggregate formation. […] The data for EC50 determination was treated with Prism and fitted using a semi-logarithmic curve for determination of the EC50 values of NU9 and compounds 4, 6, 20 and 21.

T1 sequence (P08183 whole entry): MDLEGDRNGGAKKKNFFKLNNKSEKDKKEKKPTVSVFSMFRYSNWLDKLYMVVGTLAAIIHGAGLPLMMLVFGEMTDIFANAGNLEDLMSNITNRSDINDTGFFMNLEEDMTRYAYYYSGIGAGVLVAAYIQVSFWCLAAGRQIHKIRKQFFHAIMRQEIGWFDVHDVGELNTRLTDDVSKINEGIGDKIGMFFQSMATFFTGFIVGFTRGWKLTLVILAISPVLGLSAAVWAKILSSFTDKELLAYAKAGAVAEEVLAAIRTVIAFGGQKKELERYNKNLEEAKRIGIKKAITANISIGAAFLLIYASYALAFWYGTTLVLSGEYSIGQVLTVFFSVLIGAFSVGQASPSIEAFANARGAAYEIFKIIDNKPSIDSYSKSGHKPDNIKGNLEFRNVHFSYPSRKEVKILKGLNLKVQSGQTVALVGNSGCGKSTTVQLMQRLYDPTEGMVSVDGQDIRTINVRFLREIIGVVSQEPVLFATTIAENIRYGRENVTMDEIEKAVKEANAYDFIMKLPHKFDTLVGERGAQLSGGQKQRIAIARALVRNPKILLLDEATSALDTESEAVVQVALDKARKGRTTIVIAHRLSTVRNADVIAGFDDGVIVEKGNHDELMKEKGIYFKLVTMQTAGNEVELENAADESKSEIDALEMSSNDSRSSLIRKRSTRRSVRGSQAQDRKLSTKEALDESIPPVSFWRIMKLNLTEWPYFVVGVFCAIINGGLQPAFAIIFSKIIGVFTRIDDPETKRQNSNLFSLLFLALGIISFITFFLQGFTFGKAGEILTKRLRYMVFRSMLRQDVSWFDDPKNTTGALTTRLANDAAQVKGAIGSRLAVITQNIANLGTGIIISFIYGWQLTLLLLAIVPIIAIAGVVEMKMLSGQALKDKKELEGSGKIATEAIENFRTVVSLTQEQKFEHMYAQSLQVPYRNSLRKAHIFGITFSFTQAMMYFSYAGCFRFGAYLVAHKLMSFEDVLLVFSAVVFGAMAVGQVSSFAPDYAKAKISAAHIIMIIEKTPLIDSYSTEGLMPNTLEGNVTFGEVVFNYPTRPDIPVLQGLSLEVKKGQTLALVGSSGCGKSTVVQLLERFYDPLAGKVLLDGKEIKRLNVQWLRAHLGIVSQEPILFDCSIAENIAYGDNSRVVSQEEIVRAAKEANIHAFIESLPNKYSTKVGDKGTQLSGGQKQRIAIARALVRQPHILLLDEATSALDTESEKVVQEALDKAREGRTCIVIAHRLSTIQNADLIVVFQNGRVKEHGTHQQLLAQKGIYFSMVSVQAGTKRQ

Row | substrate for the P-gp transporter [1] | Papp A→B at 120 min [1] | Papp B→A at 120 min [1] | efflux ratio at 120 min [1] | EC50 [2] | Compound
1 | substrates | 5.82 ± 0.06 ×10⁻⁶ cm/s | 14.7 ± 0.78 ×10⁻⁶ cm/s | 2.53 | 2630 ± 270 nM | CC(C)(Oc1cc(C(F)(F)F)cc(C(F)(F)F)c1)C1CC(=O)CC(=O)C1 [Compound 20, 5-(2-(3,5-bis(trifluoromethyl)phenoxy)propan-2-yl)cyclohexane-1,3-dione]
2 | substrates | 10.6 ± 1.28 ×10⁻⁶ cm/s | 24.31 ± 0.18 ×10⁻⁶ cm/s | 2.29 | 2060 ± 240 nM | O=C1CC(=O)CC(/C=C/c2cc(C(F)(F)F)cc(C(F)(F)F)c2)C1 [Compound 6, (E)-5-(3,5-Bis(trifluoromethyl)styryl)cyclohexane-1,3-dione]
